Literature values as cited in patent publication US20130338095A1, “Chemosensory Receptor Ligand-Based Therapies” (ELCELYX THERAPEUTICS, INC., priority 2010, published 2013).

Target: T1, sweet receptor (Homo sapiens, UniProt Q7RTX0+Q8TE23)
T1 sequence (Q8TE23 20-839): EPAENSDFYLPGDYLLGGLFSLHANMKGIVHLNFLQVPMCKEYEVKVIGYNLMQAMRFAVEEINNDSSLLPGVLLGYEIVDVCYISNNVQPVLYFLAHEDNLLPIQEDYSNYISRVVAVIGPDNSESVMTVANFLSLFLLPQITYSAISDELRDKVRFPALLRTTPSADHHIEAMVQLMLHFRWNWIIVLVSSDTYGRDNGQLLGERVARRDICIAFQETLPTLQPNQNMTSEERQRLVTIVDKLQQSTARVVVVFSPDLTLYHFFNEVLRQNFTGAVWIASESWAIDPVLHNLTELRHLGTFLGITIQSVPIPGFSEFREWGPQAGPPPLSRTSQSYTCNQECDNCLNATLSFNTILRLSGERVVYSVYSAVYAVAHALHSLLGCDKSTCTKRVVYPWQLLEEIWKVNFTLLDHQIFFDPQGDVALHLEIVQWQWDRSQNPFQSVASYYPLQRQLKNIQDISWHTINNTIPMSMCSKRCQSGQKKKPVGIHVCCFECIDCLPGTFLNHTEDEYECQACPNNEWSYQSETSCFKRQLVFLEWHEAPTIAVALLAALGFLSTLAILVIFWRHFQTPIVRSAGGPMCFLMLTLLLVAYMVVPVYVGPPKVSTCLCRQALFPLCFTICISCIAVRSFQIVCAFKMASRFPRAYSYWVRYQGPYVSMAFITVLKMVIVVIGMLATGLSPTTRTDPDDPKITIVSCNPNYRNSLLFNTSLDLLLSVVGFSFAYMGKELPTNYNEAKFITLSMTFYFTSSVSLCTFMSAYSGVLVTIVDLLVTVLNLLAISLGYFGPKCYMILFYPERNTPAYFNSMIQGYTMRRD
T1 sequence (Q7RTX0 21-852): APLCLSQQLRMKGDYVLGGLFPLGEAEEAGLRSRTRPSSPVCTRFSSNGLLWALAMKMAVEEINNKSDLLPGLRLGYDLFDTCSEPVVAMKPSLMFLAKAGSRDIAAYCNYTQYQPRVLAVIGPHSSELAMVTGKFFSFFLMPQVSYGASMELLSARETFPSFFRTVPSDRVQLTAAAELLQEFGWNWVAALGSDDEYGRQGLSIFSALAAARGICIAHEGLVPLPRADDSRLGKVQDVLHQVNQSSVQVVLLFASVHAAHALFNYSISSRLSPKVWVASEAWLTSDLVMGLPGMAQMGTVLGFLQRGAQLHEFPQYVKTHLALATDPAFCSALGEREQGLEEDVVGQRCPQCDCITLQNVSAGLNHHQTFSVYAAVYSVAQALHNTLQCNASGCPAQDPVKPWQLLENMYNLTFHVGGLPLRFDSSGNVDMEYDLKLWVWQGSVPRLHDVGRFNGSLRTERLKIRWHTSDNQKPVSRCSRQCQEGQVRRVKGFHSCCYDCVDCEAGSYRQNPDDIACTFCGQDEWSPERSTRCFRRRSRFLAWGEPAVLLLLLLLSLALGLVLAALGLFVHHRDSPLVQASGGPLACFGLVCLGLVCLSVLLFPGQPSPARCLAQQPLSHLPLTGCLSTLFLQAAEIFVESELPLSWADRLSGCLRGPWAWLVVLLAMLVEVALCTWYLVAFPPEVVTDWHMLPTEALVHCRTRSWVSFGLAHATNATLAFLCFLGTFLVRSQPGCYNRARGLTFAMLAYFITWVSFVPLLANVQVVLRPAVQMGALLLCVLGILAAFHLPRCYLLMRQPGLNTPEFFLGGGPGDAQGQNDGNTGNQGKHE
Conditions: relative sweetness on a weight comparison basis to sucrose (=1.0)

Compound	Sweetness/potency
COc1c(O)cc2c(c1O)C(=O)[C@H](OC(C)=O)[C@@H](c1ccc(O)c(O)c1)O2 [(2R,3R)-2,3-Dihydro-5,7,3′,4′-tetrahydroxy-6-methoxy-3-O-acetylflavonol]	25
CC(C)=CCC[C@](C)(O)[C@@H]1CCC(C)=CC1=O [(+)-Hernandulcin]	1,500
COc1ccc(C2Oc3cc(O)cc(O)c3C(=O)C2OC(C)=O)cc1O (centres unmarked) [Dihydroquercetin 3-O-acetate 4′-methyl ether]	400
C=C1C[C@@]23CC[C@H]4[C@@](C)(CCC[C@@]4(C)C(=O)O)[C@@H]2CC[C@]1(O[C@@H]1O[C@H](CO)[C@@H](O)[C@H](O)[C@H]1O[C@@H]1O[C@H](CO)[C@@H](O)[C@H](O)[C@H]1O)C3 [Steviolbioside]	90
CC1(C(=O)O)C=C2C3CCC4C5(C=O)CCC(OC6OC(C(=O)O)C(O)C(O)C6OC6OCC(O)C(O)C6O)C(C)(C)C5CCC4(C)C3(C)CCC2(C)CC1 (centres unmarked) [Periandrin V]	220
Carnosifloside V	51
Brazzein (QDKCKKVYENYPVSKCQLANQCNYDCKLDKHARSGECFYDEKRNLQCICDYCEY; UniProt P56552 1-54, looked up) [sweet protein from Pentadiplandra brazzeana]	2,000
COc1ccc(CCC(=O)c2c(O)cc(O[C@@H]3O[C@H](CO)[C@@H](O)[C@H](O)[C@H]3O[C@@H]3O[C@@H](C)[C@H](O)[C@@H](O)[C@H]3O)cc2O)cc1O [Neohesperidin dihydrochalcone]	1,000
CC1(C(=O)O)CCC2(C)CCC3(C)C(=CC(=O)C4C5(C)CCC(OC6OC(C(=O)O)C(O)C(O)C6OC6OCC(O)(CO)C6O)C(C)(C)C5CCC43C)C2C1 (centres unmarked) [Apioglycyrrhizin]	300
C/C=C/c1ccc(OC)cc1 [trans-Anethole]	13
C=C1C[C@@]23CC[C@H]4[C@@](C)(CCC[C@@]4(C)C(=O)O[C@@H]4O[C@H](CO)[C@@H](O)[C@H](O)[C@H]4O)[C@@H]2CC[C@]1(O[C@@H]1O[C@H](CO)[C@@H](O)[C@H](O)[C@H]1O[C@@H]1O[C@@H](C)[C@H](O)[C@@H](O)[C@H]1O)C3 [Dulcoside A]	30
C[C@@H]1O[C@@H](O[C@H]2O[C@@H]([C@@H](C)C3CC[C@@H]4[C@H]5CC(=O)[C@@H]6C[C@H](O[C@@H]7O[C@H](CO)[C@@H](O)[C@H](O)[C@H]7O[C@@H]7O[C@@H](C)[C@H](O)[C@@H](O)[C@H]7O)CC[C@]6(C)[C@@H]5CC[C@]34C)CC[C@@H]2C)[C@H](O)[C@H](O)[C@H]1O (some centres unmarked) [Osladin]	500
O=C/C=C/c1ccccc1 [Trans-Cinnamaldehyde]	50
Rebaudioside C	30
Albiziasaponin B	600
CC1(C)[C@@H](O[C@@H]2O[C@H](C(=O)O)[C@@H](O)[C@H](O)[C@H]2O[C@@H]2O[C@H](C(=O)O)[C@@H](O)[C@H](O)[C@H]2O)CC[C@]2(C=O)[C@H]3CC[C@@H]4C5=C[C@@](C)(C(=O)O)CC[C@]5(C)CC[C@@]4(C)[C@]3(C)CC[C@@H]12 [Periandrin I]	90
Cyclocaryoside I	250
C=C1C[C@@]23CC[C@H]4[C@@](C)(CCC[C@@]4(C)C(=O)O[C@@H]4O[C@H](CO)[C@@H](O)[C@H](O)[C@H]4O)[C@@H]2CC[C@]1(O[C@@H]1O[C@H](CO)[C@@H](O)[C@H](O)[C@H]1O[C@@H]1O[C@H](CO)[C@@H](O)[C@H](O)[C@H]1O)C3 [Stevioside]	210
CC1=CC[C@@H]([C@@H](C)[C@H]2CC[C@@]3(C)[C@@H]4CC[C@H]5[C@](C)(C(=O)O)[C@@H](O[C@@H]6O[C@H](CO)[C@@H](O)[C@H](O)[C@H]6O[C@@H]6O[C@H](C(=O)O)[C@@H](O)[C@H](O)[C@H]6O)CC[C@@]56C[C@@]46CC[C@]23C)OC1=O [Abrusoside D]	75
Pentadin	500
C[C@@H]1O[C@@H](O[C@H]2[C@H](Oc3cc(O)c(C(=O)CCc4ccc(O)cc4)c(O)c3)O[C@H](CO)[C@@H](O)[C@@H]2O)[C@H](O)[C@H](O)[C@H]1O [Naringin dihydrochalcone]	300

Compound	Sweetness/potency
CC1=CC[C@@H]([C@@H](C)[C@H]2CC[C@@]3(C)[C@@H]4CC[C@H]5[C@](C)(C(=O)O)[C@@H](O[C@@H]6O[C@H](CO)[C@@H](O)[C@H](O)[C@H]6O)CC[C@@]56C[C@@]46CC[C@]23C)OC1=O [Abrusoside A]	30
Curculin	550
Scandenoside R6	54
Pterocaryoside A	50
C=C(C)C1CCC2(C)C(CC(OC3OCC(O)C(O)C3O)C3C(C(C)(O)C/C=C/C(C)(C)O)CCC32C)C1(C)CCC(=O)O (centres unmarked) [Pterocaryoside B]	100
CC(=O)O[C@H]1C(=O)c2c(O)cc(O)cc2O[C@@H]1c1ccc(O)c(O)c1 [(2R,3R)-Dihydroquercetin 3-O-acetate]	80
COc1ccc([C@H]2Cc3cccc(O)c3C(=O)O2)cc1O [Phyllodulcin]	400
C/C(=C\CC[C@@H](C)[C@H]1CC[C@@]2(C)[C@@H]3CC=C4[C@@H](CC[C@H](O[C@@H]5O[C@H](CO)[C@@H](O)[C@H](O)[C@H]5O)C4(C)C)[C@]3(C)[C@H](O)C[C@]12C)CO[C@@H]1O[C@H](CO[C@@H]2O[C@H](CO)[C@@H](O)[C@H](O)[C@H]2O)[C@@H](O)[C@H](O)[C@H]1O [Carnosifloside VI]	77
Thaumatin	1,600
Polypodoside A	600
Rebaudioside B	150
Baiyunoside	500
COC(=O)[C@H]1O[C@@H](O[C@H]2[C@H](O[C@H]3CC[C@]45C[C@]46CC[C@]4(C)[C@@H]([C@H](C)[C@@H]7CC=C(C)C(=O)O7)CC[C@@]4(C)[C@@H]6CC[C@H]5[C@]3(C)C(=O)O)O[C@H](CO)[C@@H](O)[C@@H]2O)[C@H](O)[C@@H](O)[C@@H]1O [Abrusoside B]	100
Periandrin II	95
C/C(=C\CC/C(C)=C/CO[C@@H]1O[C@H](CO)[C@@H](O)[C@H](O[C@@H]2O[C@@H](C)[C@H](O)[C@@H](O)[C@H]2O)[C@H]1O[C@@H]1O[C@@H](C)[C@H](O)[C@@H](O)[C@H]1O)CC/C=C(\C)CO[C@@H]1O[C@H](CO)[C@@H](O)[C@H](O[C@@H]2O[C@@H](C)[C@H](O)[C@@H](O)[C@H]2O)[C@H]1O[C@@H]1O[C@@H](C)[C@H](O)[C@@H](O)[C@H]1O [Mukurozioside IIb]	ca. 1
Oc1ccc([C@H]2Oc3c(c(O)cc4c3[C@H]3c5c(O)cc(O)cc5O[C@@](c5ccc(O)cc5)(O4)[C@@H]3O)[C@H](c3c(O)cc(O)c4c3O[C@H](c3ccc(O)cc3)[C@@H](O)C4)[C@H]2O)cc1 [Selligueain A]	35
Periandrin IV	85
Cyclocarioside A	200
CC1(C)C[C@H]2C3=CC[C@@H]4[C@@]5(C)CC[C@H](O[C@@H]6O[C@H](CO[C@@H]7OC[C@H](O)[C@H](O)[C@H]7O[C@@H]7OC[C@@H](O)[C@H](O)[C@H]7O)[C@@H](O)[C@H](O)[C@H]6O)C(C)(C)[C@@H]5CC[C@@]4(C)[C@]3(C)C[C@@H](O)[C@@]23C[C@@H]1OC3=O [Albiziasaponin A]	5
CC1=CC[C@@H]([C@@H](C)[C@H]2CC[C@@]3(C)[C@@H]4CC[C@H]5[C@](C)(C(=O)O)[C@@H](O[C@@H]6O[C@H](CO)[C@@H](O)[C@H](O)[C@H]6O[C@@H]6O[C@H](CO)[C@@H](O)[C@H](O)[C@H]6O)CC[C@@]56C[C@@]46CC[C@]23C)OC1=O [Abrusoside C]	50
